These results are taken from patent publication US20250057820A1, “AUTOTAXIN (ATX) INHIBITOR FOR THE TREATMENT OF PANCREATIC CANCER” (priority 2021, published 2025).

The test system of series [1] is PANC-1 tumour cells. The note with it: for tumour growth inhibition: BALB/C nude mice, tumour weight at day 42. As for the experimental part: The therapeutic efficacy of Compound 1 with or without gemcitabine was evaluated in the orthotopic PANC-1 mouse model of pancreatic cancer. This model is constituted by the implantation of PANC-1 tumor cells into the pancreas […] in BALB/C nude mice.
Each mouse was inoculated into the subcapsular region of the pancreas with PANC-1 tumour cells (3×10^6) in 50 uL PBS with Matrigel (1:1). The date of tumour cell inoculation was denoted as day 0. Randomization started 10 days after tumour cell inoculation based on body weight. 10 mice per group were assigned to treatment by oral gavage with vehicle (1% methylcellulose, BID), gemcitabine (25 mg/kg, Q4D), Compound 1 (10 mg/kg, BID), or Compound 1 (10 mg/kg, BID) and gemcitabine (25 mg/kg, Q4D). Tumor sizes were measured by weight after termination at day 42.

In the next series the test system is RC416 tumour cells. As to the kind of experiment: orthotopic RC416 mouse model of pancreatic cancer (survival). The note with it: Compound 1 10 mg/kg BID p.o., galunisertib 50 mg/kg BID p.o., gemcitabine 75 mg/kg QW i.p.; max 28 days treatment; FIG. 5. The class given is in vivo. The source says: This model is constituted by the implantation of RC416 cells originating from a spontaneous developed donor tumour in KPC mice into the pancreas of female wildtype C57BL/6 recipient mice. The pathology and tumour microenvironment in this model closely resemble human pancreatic cancer and is characterized by high circulating ATX and TGF-β.
The day of tumour cell inoculation was denoted as day 0. Randomization started 7 days after tumor cell inoculation, based on body weight. 5 mice per group were assigned to treatment, with vehicle (1% methylcellulose, BID p.o.), Compound 1 (10 mg/kg, BID p.o.), galunisertib (50 mg/kg, BID p.o.), gemcitabine (75 mg/kg, QW i.p.), or the combinations of Compound 1 plus gemcitabine, Compound 1 plus galunisertib and gemcitabine, and galunisertib plus gemcitabine, Mice were treated for a maximum of 28 days and anti-tumour activity was measured by survival.

Another series relates to pancreatic cancer. The note with it: pancreatic cancer patients, standard treatment; cited from earlier work.
A further series concerns mPA6115-luc tumour cells. Kind of series: orthotopic mPA6115-luc mouse model of pancreatic cancer. The class given is in vivo. The note with it: 10 mg/kg BID oral gavage, female C57BL/6 mice, FIG. 2.
The test system of series [2] is PANC-1 tumour cells. As to the kind of experiment: subcutaneous PANC-1 xenograft mouse model of pancreatic cancer. The class given is in vivo. The note with it: BALB/c Nude mice, subcutaneous PANC-1, FIG. 3. The procedure:
The therapeutic efficacy of Compound 1 was evaluated in the subcutaneous PANC-1 mouse model of pancreatic cancer.
BALB/c Nude mice were inoculated subcutaneously in the right front flank region with PANC-1 tumour cells (5×10^6) in 0.1 ml of PBS. The date of tumour cell inoculation was denoted as day 0. The randomization started when the mean tumour size>100 mm^3. 10 mice were enrolled per study group. Tumour growth and body weights were measured twice per week.

Setting [3] is: Compound 1 10 mg/kg BID, gemcitabine 25 mg/kg Q4D.

Protocol for mPA6115-luc tumour cells: This model is constituted by the implantation of mPA6115-luc cells originating from a spontaneous developed donor tumour in KPC mice into the pancreas of female wildtype C57BL/6 recipient mice.
Each mouse was inoculated into the subcapsular region of the pancreas with mPA6115-luc tumour cells (1×10^6) in 50 uL PBS with Matrigel (1:1). The date of tumour cell inoculation was denoted as day 0.
The randomization started 4 days after tumour cell inoculation based on the total flux (p/s, minimum flux>1E^6). 10 mice per group were assigned to treatment by BID oral gavage with vehicle (1% methylcellulose) or Compound 1 (10 mg/kg in 1% methylcellulose). Tumour growth and metastasis were imaged twice per week by bioluminescent imaging.

In the case of `Nc1ccn([C@@H]2O[C@H](CO)[C@@H](O)C2(F)F)c(=O)n1` [gemcitabine], in the series with PANC-1 tumour cells [1] (10 mice per group, Compound 1 10 mg/kg BID, gemcitabine 25 mg/kg Q4D), the “mice died or sacrificed for reaching humane endpoints (mortality)” value was found to be 5 mice. This compound also gave a tumour growth inhibition with PANC-1 tumour cells [1] (setting [3]) of 41%. In addition, the “Number of Mice on Day 42” value in the series with PANC-1 tumour cells [1] (BALB/C nude, mouse, in vivo, 42 day) amounted to 5. Besides, the “Pancreas Size (mg) on Day 42” value in the series with PANC-1 tumour cells [1] (Day 42) was 549 + 44 mg. The survival result in the series with RC416 tumour cells is recorded as “limited survival benefit”. Moreover, in the series with pancreatic cancer, the “average median overall survival” value was 6 months and the response rate is reported as 5-10%.
`C[C@H](NC(=O)CCc1nc2cccnc2n1Cc1ccc(OC(F)(F)F)cc1)c1ccc(Cl)cc1` [Compound 1, N—[(S)-1-(4-chloro-phenyl)-ethyl]-3-[3-(4-trifluoromethoxy-benzyl)-3H-imidazo[4,5-b]pyridin-2-yl]-propionamide]: the “tumour outgrowth based on total bioluminescence” value in the series with mPA6115-luc tumour cells is given as “significantly reduced tumour outgrowth”. Also, the tumour outgrowth result with PANC-1 tumour cells [2] is given as “reduced tumour outgrowth”. Further, the tumour growth inhibition with PANC-1 tumour cells [1] (setting [3]) is 5%.
